Test results as given in US5606037A, “Processes antineoplastic heteronaphthoquinones” (BioChem Pharma Inc., priority 1995, dated 1997).
Counter-ions that a name gives are not always drawn.

Experiments:
Type in all cases: cell-based, Human
[1] = system: SKVLB (Ovarian; multidrug resistant); assay: In vitro cytotoxicity, microculture tetrazolium (MTT) assay, SKVLB; conditions: Homo sapiens; SKVLB multidrug resistant ovarian; 48 h with compound, further 48 h, MTT; Table 1
Protocol: (§1) The microculture tetrazolium assay was used to test in vitro cytotoxicity. This assay is described in Plumb, J. A. et al., 1989 Cancer Research 49, 4435-4440, which is herein incorporated by reference. The cytotoxicity of compounds towards tumor cells is measured in vitro using the assay. This assay method is based upon the ability of live, but not dead cells to reduce the yellow water soluble dye 3-(4,5-dimethylthiazol-2-yl)-2,5-diphenyltetrazolium bromide (MTT) to its water insoluble purple formazan product.
(§2) Human Tumor Cell lines, used were:
SKVLB (Ovarian; multidrug resistant)--Dr. V. Ling, Ontario Cancer Institute.
(§3) The cells were maintained in exponential growth in culture in minimal essential media (MEM) supplemented with non-essential amino acids, and containing 15% (v/v) fetal. bovine serum, 5 mM L-glutamine, 1 mM sodium pyruvate, and 0.1 U/ml insulin. All cell lines were grown at 37° C. in an atmosphere of 5% CO2 in air.
(§4) MTT: 2 mg/ml in phosphate buffered saline (stable at 4° C. in dark for 1 week).
(§5) Sorensen's buffer: 0.1M glycine/NaOH, pH 10.5, containing 0.1M NaCl.
(§6) Test compounds: 20 mM in DMSO and diluted to a final concentration of 200 μM in culture medium before use.
(§7) For each assay, doxorubicin is included as an inter-assay standard. This allows us to monitor the behaviour of the assay in general, and in particular, to check that the SKVLB line has maintained its resistant phenotype.
(§8) The assays are carried out in 96-well (8 well×12 well) microtiter plates. Serial dilutions of the compound are tested along the length of the plate. A 1:3 serial dilution of compound in culture medium covers a concentration range from 100 μM to 1.7 nM. Each concentration of compound is tested in quadruplet, allowing two compounds to be tested per plate. Wells containing no cells (blank) and cells with no test compound (control) are included on each plate.
(§9) Cells are plated out in 100 μl of culture medium in the microtiter plates at a density of around 1,500-4,000 cells per well. The plates are incubated overnight to allow the cells to become adherent after which the test compound is added (100 μl of appropriate dilution per well). The cells are incubated with test compound at 37° C. for 48 h after which the compound is replaced with fresh medium. After a further 48 h incubation at 37° C., 50 μl of MTT solution (2 mg/ml) is added to each well. The plates are incubated in the dark for 4 h at 37° C. after which the medium is removed. The MTT formazan product is extracted from the cells by the addition of 200 μl DMSO followed by 50 μl of Sorensen's buffer. The plates are shaken briefly and the absorbance at 570 nm is read using a Molecular Devices UV max plate reader. Curves are fit to the MTT assay data using a four parameter logistic equation, and the data are normalized to fit a 0% to 100% survival scale.

[2] = system: SKOV3 (Ovarian adenocarcinoma); assay: In vitro cytotoxicity, microculture tetrazolium (MTT) assay, SKOV3; conditions: SKOV3 ovarian adenocarcinoma, 48 h with compound, further 48 h, MTT, Table 1
Protocol: as §1, §2
SKOV3 (Ovarian adenocarcinoma)--provided by Dr. V. Ling, Ontario Cancer Institute.
as §3, §4, §5, §6, §7, §8, §9

[3] = system: T47D (Ductal carcinoma of breast); assay: In vitro cytotoxicity, microculture tetrazolium (MTT) assay, T47D; conditions: 48 h with compound, further 48 h, Table 1
Protocol: as §1, §2
T47D (Ductal carcinoma of breast)--ATCC catalog #HTB-133.
as §3, §4, §5, §6, §7, §8, §9

[4] = system: HT 29 (Colon adenocarcinoma); assay: In vitro cytotoxicity, microculture tetrazolium (MTT) assay, HT29; conditions: further 48 h, Table 1
Protocol: as §1, §2
HT 29 (Colon adenocarcinoma) ATCC catalog #HTB-38.
as §3, §4, §5, §6, §7, §8, §9

Lox (Melanoma) = assay: In vitro cytotoxicity, microculture tetrazolium (MTT) assay, LOX; conditions: 48 h with compound, further 48 h, Table 1
Protocol: as §1, §2
Lox (Melanoma)--Southern Research Institute.
as §3, §4, §5, §6, §7, §8, §9

[5] = Homo sapiens, HT-29, 48 h with compound

| Structure (SMILES) | IC50 [1] [nM] | IC50 ([2]; Homo sapiens, SK-OV-3) [nM] | IC50 ([3]; Homo sapiens) [nM] | IC50 [4, 5] [nM] | IC50 (Lox (Melanoma); Homo sapiens) [nM] | IC50 [2] [nM] | IC50 [3] [nM] | IC50 ([4]; 48 h with compound) [nM] | IC50 (Lox (Melanoma)) [nM] |
| --- | --- | --- | --- | --- | --- | --- | --- | --- | --- |
| COC(=O)[C@@H](N)COC1OC(C(C)=O)CC2=C1C(=O)c1ccccc1C2=O (mixture of isomers) [BCH1654, (1S, 2'S, 3R) and (1R, 2'S, 3S)-methyl-(1-[O-serinemethyl ester]-5,10-dioxo-3,4,5,10-tetrahydronaphtaleno[2,3-C]pyran-3-yl) ketone hydrochloride] | 3730 | 710 | 1590 | 3580 | 1190 | – | – | – | – |
| CC(=O)C1CC2=C(C(=O)c3ccccc3C2=O)C(OCC2CCCN(C(=O)OC(C)(C)C)C2)O1 (mixture of isomers) [BCH2060, Methyl-(1-O-[N-BOC-3-piperidinemethanol]-5,6-dioxo-3,4,5,10-tetrahydronaphthaleno-[2,3-c]pyran-3-yl) ketone] | 2500 | 1140 | 562 | 260 | 1950 | – | – | – | – |
| CC(=O)C1CC2=C(C(=O)c3ccccc3C2=O)C(OCC2CCCNC2)O1 (mixture of isomers) [BCH2061, Methyl-(1-O-[3-piperidinemethanol]-5,10-dioxo-3,4,5,10-tetrahydronaphthaleno-[2,3-c]pyran-3-yl) ketone hydrochloride salt] | 141 | 8.3 | 270 | 54 | 45 | – | – | – | – |
| CC(=O)C1CC2=C(C(=O)c3ccccc3C2=O)C(O[C@H]2C[C@H](NC(=O)C(F)(F)F)[C@H](OS(C)(=O)=O)[C@H](C)O2)O1 (mixture of isomers) [BCH2095, (1'-S, 1-S, 3-R) and (1'-S, 1-R, 3-S)-methyl-(1-[2',3',4',6' tetradeoxy-3'-trifluoroacetamido-4'-O-methane-sulfonyl-L-lyxohexopyranose)-5,10-dioxo-3,4,5,10 tetrahydronaphtho-[2,3-c]pyran-3-yl) ketone] | 1600 | 190 | 370 | 99.6 | 140 | – | – | – | – |
| CC(=O)CC1CC2=C(C(=O)c3cccc(O)c3C2=O)C(O[C@H]2C[C@H](NC(=O)C(F)(F)F)[C@H](O)[C@H](C)O2)O1 (mixture of isomers) [BCH2098, (1'-S, 1-S, 3-R) and (1'-S, 1-R, 3-S)-1-(6-hydroxy-1-(2',3',6'-trideoxy-3'-trifluoroacetamido, 4-hydroxy-L-lyxopyranose)-5,10-dioxo-3,4,5,10 tetrahydronaphtho-[2,3-c]pyran-3-yl) propane-2-one] | 30000 | 8000 | 10000 | 17000 | 4200 | – | – | – | – |
| CC(=O)C1CC2=C(C(=O)c3ccccc3C2=O)C(O[C@H]2C[C@H](O)[C@H](O)[C@H](C)O2)O1 (mixture of isomers) [BCH2117, (1'S,1S,3R) and (1'S,1R,3S)-methyl-(1-[dideoxy-2',6'-dihydroxy-3',4'-L-lyxohexopyranose]-5,10-dioxo-3,4,5,10-tetrahydronaphtho-[2,3-c]-pyran-3-yl) ketone] | – | 9.5 | 37.4 | 30 | 73 | – | – | – | – |
| CO[C@@H]1O[C@H](C(=O)Nc2ccccc2)CC2=C1C(=O)c1ccccc1C2=O (relative stereo) [BCH2042, (1,3-cis)-anline-(1-methoxy-5,10-dioxo-3,4,5,10-tetrahydro-1H-naphtho-[2,3-c]-pyran)-3-carboxamide] | 13200 | 3800 | 8000 | 1200 | 2220 | – | – | – | – |
| CC(=O)C1CC2=C(CO1)C(=O)c1ccccc1C2=O (stereo not drawn) [BCH1125, Methyl (5,10-dioxo-3,4,5,10-tetrahydronaphtho [2,3-C]pyran-3-yl) ketone] | 92900 | > 100000 | 36400 | > 100000 | 52800 | – | – | – | – |
| CC(=O)C1CC2=C(CO1)C(=O)c1ccc(O)cc1C2=O (stereo not drawn) [BCH1129, Methyl (7-hydroxy-5,10-dioxo-3,4,5,10-tetrahydronaphtho [2,3-C]pyran-3-yl) ketone] | > 100000 | 73300 | 59400 | 63200 | 88200 | – | – | – | – |
| CC(=O)C1CC2=C(C(=O)c3ccccc3C2=O)C(O)O1 (stereo not drawn) [BCH1148, Methyl (1-hydroxy-5,10-dioxo-3,4,5,10-tetrahydronaphtho [2,3-C]pyran-3-yl) ketone] | > 100000 | > 100000 | > 100000 | > 100000 | > 100000 | – | – | – | – |
| CC(=O)[C@H]1CC2=C(C(=O)c3ccc(O)cc3C2=O)[C@H](O[C@H]2C[C@H](NC(=O)C(F)(F)F)[C@H](O)[C@H](C)O2)O1 [BCH1180, (1'S,1S,3R)-Methyl (5,10-dioxo-1-(2',3',6'-trideoxy-3'-trifluoroacetamido-L-lyxohexopyranose)-7-hydroxy-3,4,5, 10-tetrahydro[2,3-C]pyran-3-yl) ketone] | 8680 | 851 | 7610 | 468 | 3330 | – | – | – | – |
| CC(=O)[C@@H]1CC2=C(C(=O)c3ccc(O)cc3C2=O)[C@@H](O[C@H]2C[C@H](NC(=O)C(F)(F)F)[C@H](O)[C@H](C)O2)O1 [BCH1181, (1'S,1R,3S)-Methyl (5,10-dioxo-1-(2',3',6'-trideoxy-3'-trifluoroacetamido-L-lyxohexopyranose)-7-hydroxy-3,4,5, 10-tetrahydro[2,3-C]pyran-3-yl) ketone] | 8480 | 2260 | 9230 | 536 | 3070 | – | – | – | – |
| Nc1nc(C2CC3=C(CO2)C(=O)c2ccccc2C3=O)cs1 (stereo not drawn) [BCH1189] | 26600 | 6500 | 12500 | 16600 | 14300 | – | – | – | – |
| C=CCC1CC2=C(C(=O)c3ccccc3C2=O)C(OC2CC(NC(=O)C(F)(F)F)C(O)C(C)O2)O1 (stereo not drawn) [BCH1648] | – | 51.9 | 360 | 309 | 138 | – | – | – | – |
| CC(NC(=O)C(F)(F)F)[C@H]1CC2=C(C(=O)c3ccccc3C2=O)[C@H](O[C@H]2C[C@H](O)[C@H](O)[C@H](C)O2)O1 (stereo partly drawn) [BCH2018, (1'S,1S,3R)-3-(trifluoroacetamidoethyl)-5,10-dioxo-1-(2',3',6'-trideoxy-3',4'-dihydroxy-L-lyxohexopyranose)-3,4,5,10-tetrahydro-1H-naphtho-[2,3-c]-pyran] | – | – | – | – | – | 3110 | 8560 | 14200 | 2380 |
| CC(=O)[C@H]1CC2=C(C(=O)c3ccccc3C2=O)[C@H](O[C@H]2C[C@H](NC(=O)C(F)(F)F)[C@H](OC(=O)CBr)[C@H](C)O2)O1 [BCH2105, (1'-S, 1-S, 3-R)-methyl-(1-[2',3',4',6' tetradeoxy-3'-trifluoroacetamido-4'-O-(2-bromo-acetyl)-L-lyxopyranose]-5, 10-dioxo-3,4,5,10 tetrahydronaphtho-[2,3-c]pyran-3-yl) ketone] | – | 3 | 19 | 6.9 | 25 | – | – | – | – |
| COC1OC(C(=O)NCCCn2ccnc2)=CC2=C1C(=O)c1ccccc1C2=O (stereo not drawn) [BCH2157, (3-N-hydrochloroimidazolylpropyl)-1-methoxy-5,10-dioxo-5,10-dihydro-1H-naphtho-[2,3-c]-pyran-3-carboxamide] | – | – | – | – | – | 187 | 233 | 1230 | 15.5 |
| CCCC1OC(C(=O)NCCCN(C)C)=CC2=C1C(=O)c1ccccc1C2=O (stereo not drawn) [BCH2168, 1-propyl-3-(3-dimethylaminopropylaminocarbonyl)-5,10-dihydro-5,10-dioxo-1H-naphtho-[2,3-c]-pyran] | 980 | 180 to 276 | 573 | 393 to 1200 | – | – | – | – | – |
